The results in this text go back to BindingDB's records for PubMed 2905001 (Mcneil Pharmaceutical, 1988).

Structures are written as SMILES. Values joined by “and” are separate entries in the source; they are usually repeats but may differ in a detail not shown here. Equal values may be shown once. Where a name gives a salt, the structure may show the parent alone.

The target in test [1] is 5-hydroxytryptamine receptor 2A (Rattus norvegicus, UniProt P14842).
Test [2] has as its target Sodium-dependent serotonin transporter (Rattus norvegicus, UniProt P31652).
Test [3] addresses Norepinephrine transporter (Rattus norvegicus, UniProt Q9JIA2).
Test [4] concerns the target Sodium-dependent dopamine transporter (Rattus norvegicus, UniProt P23977).
The target in test [5] is T1, Alpha-1A adrenergic receptor (Rattus norvegicus, UniProt P43140).
T1 sequence (P43140 whole entry): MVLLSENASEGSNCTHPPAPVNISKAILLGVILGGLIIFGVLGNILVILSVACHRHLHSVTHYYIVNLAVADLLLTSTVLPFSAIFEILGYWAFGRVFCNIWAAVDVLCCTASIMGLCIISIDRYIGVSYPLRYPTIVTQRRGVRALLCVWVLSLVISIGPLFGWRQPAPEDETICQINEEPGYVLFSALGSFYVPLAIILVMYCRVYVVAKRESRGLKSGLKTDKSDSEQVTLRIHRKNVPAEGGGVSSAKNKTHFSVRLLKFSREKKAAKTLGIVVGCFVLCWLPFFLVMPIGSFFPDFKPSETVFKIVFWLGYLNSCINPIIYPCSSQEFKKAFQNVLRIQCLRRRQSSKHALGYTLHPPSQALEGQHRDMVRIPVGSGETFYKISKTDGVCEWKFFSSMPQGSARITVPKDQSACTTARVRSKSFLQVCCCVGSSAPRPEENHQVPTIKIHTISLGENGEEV

5-hydroxytryptamine receptor 2A, sequence (P14842 whole entry): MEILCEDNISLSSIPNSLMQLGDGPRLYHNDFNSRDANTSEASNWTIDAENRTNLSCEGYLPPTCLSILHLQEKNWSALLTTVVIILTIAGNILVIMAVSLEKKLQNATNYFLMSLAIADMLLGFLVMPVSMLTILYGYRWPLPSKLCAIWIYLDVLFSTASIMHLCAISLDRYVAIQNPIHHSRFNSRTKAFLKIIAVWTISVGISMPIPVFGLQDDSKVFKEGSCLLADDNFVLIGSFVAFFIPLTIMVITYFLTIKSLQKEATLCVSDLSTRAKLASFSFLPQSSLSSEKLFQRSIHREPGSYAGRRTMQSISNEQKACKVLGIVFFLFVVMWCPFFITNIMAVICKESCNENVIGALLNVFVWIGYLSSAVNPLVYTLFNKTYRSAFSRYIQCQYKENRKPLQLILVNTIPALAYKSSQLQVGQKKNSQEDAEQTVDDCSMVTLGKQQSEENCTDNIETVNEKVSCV
Sodium-dependent dopamine transporter, sequence (P23977 whole entry): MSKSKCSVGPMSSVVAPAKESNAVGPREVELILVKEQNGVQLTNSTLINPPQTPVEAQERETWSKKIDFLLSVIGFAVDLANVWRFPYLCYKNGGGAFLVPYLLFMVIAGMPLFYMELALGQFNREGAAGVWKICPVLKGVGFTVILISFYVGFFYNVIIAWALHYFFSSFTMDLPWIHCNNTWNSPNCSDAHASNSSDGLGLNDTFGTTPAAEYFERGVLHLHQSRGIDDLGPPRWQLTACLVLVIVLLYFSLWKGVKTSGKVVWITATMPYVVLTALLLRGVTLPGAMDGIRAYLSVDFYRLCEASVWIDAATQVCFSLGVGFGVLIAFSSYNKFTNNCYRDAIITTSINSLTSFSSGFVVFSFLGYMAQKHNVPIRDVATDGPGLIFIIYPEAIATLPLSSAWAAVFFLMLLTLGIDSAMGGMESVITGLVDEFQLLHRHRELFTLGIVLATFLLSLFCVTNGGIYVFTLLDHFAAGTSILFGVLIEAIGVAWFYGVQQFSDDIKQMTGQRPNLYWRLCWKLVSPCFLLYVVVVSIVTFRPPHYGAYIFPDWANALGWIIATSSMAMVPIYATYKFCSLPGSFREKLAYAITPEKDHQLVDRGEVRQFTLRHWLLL
Sodium-dependent serotonin transporter, sequence (P31652 whole entry): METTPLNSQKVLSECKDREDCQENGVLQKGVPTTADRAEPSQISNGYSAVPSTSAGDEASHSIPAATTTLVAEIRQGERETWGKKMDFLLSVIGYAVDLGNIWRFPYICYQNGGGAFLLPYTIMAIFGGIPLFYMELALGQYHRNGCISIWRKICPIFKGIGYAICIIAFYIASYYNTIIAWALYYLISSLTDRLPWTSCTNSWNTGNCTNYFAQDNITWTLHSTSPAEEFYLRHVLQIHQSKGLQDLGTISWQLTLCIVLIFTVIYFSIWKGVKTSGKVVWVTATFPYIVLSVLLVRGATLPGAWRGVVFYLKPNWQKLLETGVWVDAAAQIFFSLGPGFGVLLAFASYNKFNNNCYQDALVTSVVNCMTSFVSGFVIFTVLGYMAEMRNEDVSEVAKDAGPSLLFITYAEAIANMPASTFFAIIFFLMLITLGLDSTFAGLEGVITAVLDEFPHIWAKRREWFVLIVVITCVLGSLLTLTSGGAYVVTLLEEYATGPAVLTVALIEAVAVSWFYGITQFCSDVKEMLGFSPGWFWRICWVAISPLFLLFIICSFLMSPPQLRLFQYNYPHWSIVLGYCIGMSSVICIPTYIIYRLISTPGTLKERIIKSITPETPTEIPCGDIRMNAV

Broadly, the Ki is the equilibrium dissociation constant of an inhibitor or competing ligand from its target. Low readings indicate tighter binding, high ones weaker binding. Regarding `c1ccc2c(CCC3CCNCC3)c[nH]c2c1`, the inhibitory constant (Ki) in test [1] worked out at 50.2 nM; in test [2], 1.72 nM; in test [3] it was 513 nM; in test [4], 1040 nM.

In the case of `CSc1ccc(C2CN3CCCC3c3ccccc32)cc1` (stereo unspecified), the Ki in test [4] came out at 69.8 nM.

As for `O=c1n(CCCN2CCN(c3cccc(Cl)c3)CC2)nc2ccccn12` [2-{3-[4-(3-chlorophenyl)piperazin-1-yl]propyl}[1,2,4]triazolo[4,3-a]pyridin-3(2H)-one], the inhibition constant Ki in test [5] was 84 nM; in test [3], 3800 nM; in test [4], greater than 10000 nM.

Turning to `COCCCC/C(=N\OCCN)c1ccc(C(F)(F)F)cc1` [(1E)-5-methoxy-1-[4-(trifluoromethyl)phenyl]pentan-1-one O-(2-aminoethyl)oxime], the Ki is 299 nM in test [3] and greater than 10000 nM in test [4].

`COc1ccc(OC[C@H]2CN(C)CC[C@@H]2c2ccccc2)cc1` [(3R,4S)-3-(4-Methoxy-phenoxymethyl)-1-methyl-4-phenyl-piperidine] gave a Ki in test [4] of 1040 nM.

For `COCCCCC(=NOCCN)c1ccc(Cl)cc1` [CAS_68717], the Ki in test [1] is 1000 nM; in test [2], 2.76 nM; in test [3], 6.6 nM; in test [4], 462 nM.

`CN(C)CCCN1c2ccccc2CCc2ccc(Cl)cc21` [CLOMIPRAMINE HYDROCHLORIDE] registered a Ki in test [4] of 3810 nM.

On to `CSc1ccc([C@H]2CN3CCC[C@H]3c3ccccc32)cc1` [McN-5652-X-68], for which the values for the inhibitory constant (Ki) in test [5] and in test [1] were 274 nM and 142 nM, respectively.

Turning to `CSc1ccc([C@@H]2CN3CCC[C@@H]3c3ccccc32)cc1` [McN-5652-Z-68], the Ki was 213 nM and 314 nM in test [5]; 939 nM and 208 nM in test [1].

Take `CN(C)C/C=C(/c1ccc(Br)cc1)c1cccnc1` [cis-[3-(4-Bromo-phenyl)-3-pyridin-3-yl-allyl]-dimethyl-amine;HCl]: the inhibitory constant (Ki) in test [4] is greater than 10000 nM.
